According to article PMC5218480 (PLoS ONE, 2017):

System: MV-4-11 cells
Experiment: Gene expression microarray analysis (Affymetrix PrimeView) and GSEA
Format: cell-based, human
Design: RFU PODN (11730768_x_at) / Fold change /veh PODN (11730768_x_at) / RFU LINC00158 (11744669_a_at) / Fold change /veh LINC00158 (11744669_a_at) / RFU DUSP10 (11751237_a_at) / Fold change /veh DUSP10 (11751237_a_at) / RFU ID3 (11757404_x_at) / Fold change /veh ID3 (11757404_x_at) / RFU PLEKHG5 (11737974_s_at) / Fold change /veh PLEKHG5 (11737974_s_at) / RFU LRRC4B (11730491_at) / Fold change /veh LRRC4B (11730491_at) / RFU GIMAP4 (11747438_a_at) / Fold change /veh GIMAP4 (11747438_a_at) / RFU KRT8 (11758183_x_at) / Fold change /veh KRT8 (11758183_x_at) / RFU CNN1 (11734310_a_at) / Fold change /veh CNN1 (11734310_a_at) / RFU VPS37D (11726825_at) / Fold change /veh VPS37D (11726825_at) / RFU C10orf10 (11716522_x_at) / Fold change /veh C10orf10 (11716522_x_at) / RFU KIR2DL2 /// KIR2DL4 /// KIR2DL5A /// KIR2DL5B /// KIR2DS1 /// KIR2DS2 /// KIR2DS3 /// KIR2DS4 /// KIR3DL3 /// KIR3DL3 /// KIR3DS1 (11738374_at) / Fold change /veh KIR2DL2 /// KIR2DL4 /// KIR2DL5A /// KIR2DL5B /// KIR2DS1 /// KIR2DS2 /// KIR2DS3 /// KIR2DS4 /// KIR3DL3 /// KIR3DL3 /// KIR3DS1 (11738374_at) / RFU C1QL1 (11718748_at) / Fold change /veh C1QL1 (11718748_at) / RFU TMPRSS4 (11747572_a_at) / Fold change /veh TMPRSS4 (11747572_a_at) / RFU HAMP (11756126_x_at) / Fold change /veh HAMP (11756126_x_at) / RFU RNFT2 (11725882_a_at) / Fold change /veh RNFT2 (11725882_a_at) / RFU NR4A2 (11747474_a_at) / Fold change /veh NR4A2 (11747474_a_at) / RFU ABCC12 (11746883_a_at) / Fold change /veh ABCC12 (11746883_a_at) / RFU TMEM136 (11760407_x_at) / Fold change /veh TMEM136 (11760407_x_at) / RFU CLDN22 /// WWC2 (11732394_at) / Fold change /veh CLDN22 /// WWC2 (11732394_at) / RFU HLA-DPB1 (11760878_x_at) / Fold change /veh HLA-DPB1 (11760878_x_at) / RFU SPINT1 (11716480_a_at) / Fold change /veh SPINT1 (11716480_a_at) / RFU GAP43 (11754022_s_at) / Fold change /veh GAP43 (11754022_s_at) / RFU A4GNT (11735810_at) / Fold change /veh A4GNT (11735810_at) / RFU PRB3 (11715151_x_at) / Fold change /veh PRB3 (11715151_x_at) / RFU TUBB4B (11761932_at) / Fold change /veh TUBB4B (11761932_at) / RFU CAPN14 (11732068_a_at) / Fold change /veh CAPN14 (11732068_a_at) / RFU TMCC2 (11721928_a_at) / Fold change /veh TMCC2 (11721928_a_at) / RFU IRGQ (11745062_a_at) / Fold change /veh IRGQ (11745062_a_at) / RFU FAM174B (11720279_a_at) / Fold change /veh FAM174B (11720279_a_at) / RFU TMPRSS4 (11748680_a_at) / Fold change /veh TMPRSS4 (11748680_a_at) / RFU FAM212B (11763350_a_at) / Fold change /veh FAM212B (11763350_a_at) / RFU PLEKHG5 (11743358_a_at) / Fold change /veh PLEKHG5 (11743358_a_at) / RFU ZSCAN30 (11745921_a_at) / Fold change /veh ZSCAN30 (11745921_a_at) / RFU CMKLR1 (11741424_a_at) / Fold change /veh CMKLR1 (11741424_a_at) / RFU LOC101060620 /// MAPK8IP1 (11723275_at) / Fold change /veh LOC101060620 /// MAPK8IP1 (11723275_at) / RFU SPTSSB (11747773_x_at) / Fold change /veh SPTSSB (11747773_x_at) / RFU PRSS12 (11739890_at) / Fold change /veh PRSS12 (11739890_at) / RFU BIN1 (11741810_x_at) / Fold change /veh BIN1 (11741810_x_at) / RFU WNT11 (11732464_a_at) / Fold change /veh WNT11 (11732464_a_at) / RFU C10orf10 (11716521_a_at) / Fold change /veh C10orf10 (11716521_a_at) / RFU C5orf56 (11738089_at) / Fold change /veh C5orf56 (11738089_at) / RFU CYB561 (11721691_x_at) / Fold change /veh CYB561 (11721691_x_at) / RFU ANKRD19P (11752326_a_at) / Fold change /veh ANKRD19P (11752326_a_at) / RFU OR2T12 /// OR2T33 /// OR2T8 (11738714_s_at) / Fold change /veh OR2T12 /// OR2T33 /// OR2T8 (11738714_s_at) / RFU VCAN (11748164_a_at) / Fold change /veh VCAN (11748164_a_at) / RFU JSRP1 (11732532_at) / Fold change /veh JSRP1 (11732532_at) / RFU KRTAP10-11 (11738290_x_at) / Fold change /veh KRTAP10-11 (11738290_x_at) / RFU MYO3A (11730013_a_at) / Fold change /veh MYO3A (11730013_a_at) / RFU EBF3 (11725865_a_at) / Fold change /veh EBF3 (11725865_a_at) / RFU CAMK2N1 (11719241_x_at) / Fold change /veh CAMK2N1 (11719241_x_at) / RFU C5orf56 (11738088_a_at) / Fold change /veh C5orf56 (11738088_a_at) / RFU OLFML3 (11715873_a_at) / Fold change /veh OLFML3 (11715873_a_at) / RFU LOC100653217 /// NTM (11731650_a_at) / Fold change /veh LOC100653217 /// NTM (11731650_a_at) / RFU MAPK11 (11762145_a_at) / Fold change /veh MAPK11 (11762145_a_at) / RFU FIZ1 (11724087_x_at) / Fold change /veh FIZ1 (11724087_x_at) / RFU OASL (11726364_x_at) / Fold change /veh OASL (11726364_x_at) / RFU SOX15 (11748057_x_at) / Fold change /veh SOX15 (11748057_x_at) / RFU CD79A (11719716_a_at) / Fold change /veh CD79A (11719716_a_at) / RFU HIST1H1D (11736915_at) / Fold change /veh HIST1H1D (11736915_at) / RFU CASKIN2 (11723855_a_at) / Fold change /veh CASKIN2 (11723855_a_at) / RFU LOC730098 (11760151_x_at) / Fold change /veh LOC730098 (11760151_x_at) / RFU OR4N2 (11742367_at) / Fold change /veh OR4N2 (11742367_at) / RFU PRRT2 (11749266_a_at) / Fold change /veh PRRT2 (11749266_a_at) / RFU SNX32 (11753110_a_at) / Fold change /veh SNX32 (11753110_a_at) / RFU CDHR5 (11726645_a_at) / Fold change /veh CDHR5 (11726645_a_at) / RFU RCAN1 (11760418_a_at) / Fold change /veh RCAN1 (11760418_a_at) / RFU FAM167A (11723789_a_at) / Fold change /veh FAM167A (11723789_a_at) / RFU FAM26E (11764081_at) / Fold change /veh FAM26E (11764081_at) / RFU ISYNA1 (11749810_s_at) / Fold change /veh ISYNA1 (11749810_s_at) / RFU ACY1 (11761880_at) / Fold change /veh ACY1 (11761880_at) / RFU 11764098_at / Fold change /veh 11764098_at / RFU SAMD14 (11745864_x_at) / Fold change /veh SAMD14 (11745864_x_at) / RFU NPB (11741838_a_at) / Fold change /veh NPB (11741838_a_at) / RFU TMPRSS6 (11731388_a_at) / Fold change /veh TMPRSS6 (11731388_a_at) / RFU KRTAP10-2 (11738614_at) / Fold change /veh KRTAP10-2 (11738614_at) / RFU ARHGAP8 /// PRR5-ARHGAP8 (11727945_x_at) / Fold change /veh ARHGAP8 /// PRR5-ARHGAP8 (11727945_x_at) / RFU KRTAP5-7 /// NADSYN1 (11734609_at) / Fold change /veh KRTAP5-7 /// NADSYN1 (11734609_at) / RFU RASL12 (11751679_a_at) / Fold change /veh RASL12 (11751679_a_at) / RFU CDKN2B (11736163_a_at) / Fold change /veh CDKN2B (11736163_a_at) / RFU PRF1 (11729649_at) / Fold change /veh PRF1 (11729649_at) / RFU, ZNF638 /// ZNF638-IT1 / Fold change vs veh, ZNF638 /// ZNF638-IT1 / RFU, PANK3 / Fold change vs veh, PANK3 / RFU, SH3YL1 / Fold change vs veh, SH3YL1 / RFU, ZEB2 / Fold change vs veh, ZEB2 / RFU, NRIP1 / Fold change vs veh, NRIP1 / RFU, PTTG1IP / Fold change vs veh, PTTG1IP / RFU, CAPN2 / Fold change vs veh, CAPN2 / RFU, MED14 / Fold change vs veh, MED14 / RFU, SNORA58 / Fold change vs veh, SNORA58 / RFU, C1orf63 / Fold change vs veh, C1orf63 / RFU, LRRFIP1 / Fold change vs veh, LRRFIP1 / RFU, NDUFAF7 / Fold change vs veh, NDUFAF7 / RFU, SLC12A2 / Fold change vs veh, SLC12A2 / RFU, IBTK / Fold change vs veh, IBTK / RFU, ESF1 / Fold change vs veh, ESF1 / Fold change vs veh, TMEM50B / RFU, TAOK1 / Fold change vs veh, TAOK1 / RFU, ACBD3 / Fold change vs veh, ACBD3 / RFU, TMA16 / Fold change vs veh, TMA16 / RFU, RWDD3 / Fold change vs veh, RWDD3 / RFU, BCAT1 / Fold change vs veh, BCAT1 / RFU, EDEM3 / Fold change vs veh, EDEM3 / RFU, TMEM33 / Fold change vs veh, TMEM33 / RFU, WDR75 / Fold change vs veh, WDR75 / RFU, AHCTF1 / Fold change vs veh, AHCTF1 / RFU, TFRC / Fold change vs veh, TFRC / RFU, ZDHHC17 / Fold change vs veh, ZDHHC17 / RFU, NOM1 / Fold change vs veh, NOM1 / RFU, ARL8B / Fold change vs veh, ARL8B / RFU, ZBTB11 / Fold change vs veh, ZBTB11 / RFU, TAMM41 / Fold change vs veh, TAMM41 / RFU, KIAA1704 /// LOC100996395 / Fold change vs veh, KIAA1704 /// LOC100996395 / RFU, ING1 / Fold change vs veh, ING1 / RFU, TRMT61B / Fold change vs veh, TRMT61B / RFU, FUBP3 / Fold change vs veh, FUBP3 / RFU, TP53 / Fold change vs veh, TP53 / RFU, TNKS2 / Fold change vs veh, TNKS2 / RFU, ZFP14 / Fold change vs veh, ZFP14 / RFU, ACTR2 / Fold change vs veh, ACTR2 / RFU, PPP3R1 / Fold change vs veh, PPP3R1 / RFU, PIK3R1 / Fold change vs veh, PIK3R1 / RFU, HNRNPA1 / Fold change vs veh, HNRNPA1 / RFU, RNF170 / Fold change vs veh, RNF170 / RFU, ZNF28 / Fold change vs veh, ZNF28 / RFU, RNGTT / Fold change vs veh, RNGTT / RFU, OGT / Fold change vs veh, OGT / RFU, BRD1 / Fold change vs veh, BRD1 / RFU, MARS / Fold change vs veh, MARS / RFU, ZNF655 / Fold change vs veh, ZNF655 / RFU, FAHD1 / Fold change vs veh, FAHD1 / RFU, BDP1 / Fold change vs veh, BDP1 / RFU, LRRCC1 / Fold change vs veh, LRRCC1 / RFU, ARID1A / Fold change vs veh, ARID1A / RFU, ZNF146 / Fold change vs veh, ZNF146 / RFU, ZNF330 / Fold change vs veh, ZNF330 / RFU, GPN3 / Fold change vs veh, GPN3 / RFU, C9orf123 / Fold change vs veh, C9orf123 / RFU, N4BP2L2 / Fold change vs veh, N4BP2L2 / RFU, ARFIP1 / Fold change vs veh, ARFIP1 / RFU, FAM179B / Fold change vs veh, FAM179B / RFU, BCL10 / Fold change vs veh, BCL10 / RFU, UHRF1BP1L / Fold change vs veh, UHRF1BP1L / RFU, BET1 / Fold change vs veh, BET1 / RFU, CNOT2 / Fold change vs veh, CNOT2 / RFU, ZNF268 / Fold change vs veh, ZNF268 / Fold change vs veh, ZNF507 / RFU, DGCR2 / Fold change vs veh, DGCR2 / RFU, WDSUB1 / Fold change vs veh, WDSUB1 / Fold change vs veh, HSP90B1 /// MIR3652 / RFU, ADSS / Fold change vs veh, ADSS / RFU, GK / Fold change vs veh, GK / RFU, ZNF148 / Fold change vs veh, ZNF148 / RFU, TAF9 / Fold change vs veh, TAF9 / RFU, SLC1A5 / Fold change vs veh, SLC1A5 / RFU, SLMO2 / Fold change vs veh, SLMO2 / RFU, ABCC4 / Fold change vs veh, ABCC4 / RFU, LOC101060439 /// RAP1B / Fold change vs veh, LOC101060439 /// RAP1B / RFU, RFX7 / Fold change vs veh, RFX7 / RFU, GTPBP10 / Fold change vs veh, GTPBP10 / RFU, CNEP1R1 / Fold change vs veh, CNEP1R1 / RFU, BIVM-ERCC5 /// ERCC5 / Fold change vs veh, BIVM-ERCC5 /// ERCC5 / RFU, ILF3 / Fold change vs veh, ILF3 / RFU 11762660_at / Fold change /veh 11762660_at / RFU VCAN (11757783_s_at) / Fold change /veh VCAN (11757783_s_at) / RFU DDX43 (11728927_at) / Fold change /veh DDX43 (11728927_at) / RFU KRT8 (11758188_x_at) / Fold change /veh KRT8 (11758188_x_at) / RFU NKD1 (11759106_at) / Fold change /veh NKD1 (11759106_at) / RFU SRD5A1 (11742802_a_at) / Fold change /veh SRD5A1 (11742802_a_at) / RFU TPSAB1 /// TPSB2 (11721975_s_at) / Fold change /veh TPSAB1 /// TPSB2 (11721975_s_at) / RFU GSTM3 (11746129_a_at) / Fold change /veh GSTM3 (11746129_a_at) / RFU IL23R (11737362_x_at) / Fold change /veh IL23R (11737362_x_at) / RFU TMEM51 (11727254_a_at) / Fold change /veh TMEM51 (11727254_a_at) / RFU PIWIL2 (11732686_x_at) / Fold change /veh PIWIL2 (11732686_x_at) / RFU ORM1 (11744905_x_at) / Fold change /veh ORM1 (11744905_x_at) / RFU CCDC152 (11743942_at) / Fold change /veh CCDC152 (11743942_at) / RFU ECM1 (11717891_a_at) / Fold change /veh ECM1 (11717891_a_at) / RFU IL23R (11748794_a_at) / Fold change /veh IL23R (11748794_a_at) / RFU TNFAIP8L3 (11732012_x_at) / Fold change /veh TNFAIP8L3 (11732012_x_at) / RFU MBOAT4 (11741988_at) / Fold change /veh MBOAT4 (11741988_at) / RFU 11764193_at / Fold change /veh 11764193_at / RFU TMEM53 (11763286_at) / Fold change /veh TMEM53 (11763286_at) / RFU MAGEB2 (11727129_at) / Fold change /veh MAGEB2 (11727129_at) / RFU TMEM200A (11744735_a_at) / Fold change /veh TMEM200A (11744735_a_at) / RFU CCDC152 (11751479_a_at) / Fold change /veh CCDC152 (11751479_a_at) / RFU FAM211A (11726209_a_at) / Fold change /veh FAM211A (11726209_a_at) / RFU RGS16 (11746705_a_at) / Fold change /veh RGS16 (11746705_a_at) / RFU VCAN (11755009_s_at) / Fold change /veh VCAN (11755009_s_at) / RFU RHOB (11743442_s_at) / Fold change /veh RHOB (11743442_s_at) / RFU RGS16 (11720943_a_at) / Fold change /veh RGS16 (11720943_a_at) / RFU RGS16 (11720944_at) / Fold change /veh RGS16 (11720944_at) / RFU, VPS4B / Fold change vs veh, VPS4B / RFU, CREB1 / Fold change vs veh, CREB1 / RFU, DNAJC13 / Fold change vs veh, DNAJC13 / RFU, GNAQ / Fold change vs veh, GNAQ / RFU, CDK5R1 / Fold change vs veh, CDK5R1 / RFU, ZRANB3 / Fold change vs veh, ZRANB3 / RFU, CUL4A / Fold change vs veh, CUL4A / RFU, CCNY / Fold change vs veh, CCNY / RFU, UFL1 / Fold change vs veh, UFL1 / RFU, COG3 / Fold change vs veh, COG3 / RFU, DIAPH2 / Fold change vs veh, DIAPH2 / RFU, SKA2 / Fold change vs veh, SKA2 / RFU, AFF3 / Fold change vs veh, AFF3 / RFU, LMF1 / Fold change vs veh, LMF1 / RFU, IPO11 / Fold change vs veh, IPO11 / RFU, DFFB / Fold change vs veh, DFFB / RFU, FOXP1 / Fold change vs veh, FOXP1 / RFU, CARD8 / Fold change vs veh, CARD8 / RFU, STRN3 / Fold change vs veh, STRN3 / RFU, ADK / Fold change vs veh, ADK / RFU, RASSF2 / Fold change vs veh, RASSF2 / RFU, WIPF1 / Fold change vs veh, WIPF1 / RFU, LARP1B / Fold change vs veh, LARP1B / RFU, RASA1 / Fold change vs veh, RASA1 / RFU, RB1 / Fold change vs veh, RB1 / RFU, PPFIA1 / Fold change vs veh, PPFIA1 / RFU, MAT2A / Fold change vs veh, MAT2A / RFU, CCT5 / Fold change vs veh, CCT5 / RFU, WDR92 / Fold change vs veh, WDR92 / RFU, CUX1 / Fold change vs veh, CUX1 / RFU, TTC7A / Fold change vs veh, TTC7A / RFU, TMEM135 / Fold change vs veh, TMEM135 / RFU, DEPTOR / Fold change vs veh, DEPTOR / RFU, CPM / Fold change vs veh, CPM / RFU, DNAJB6 / Fold change vs veh, DNAJB6 / RFU, CACNA2D3 / Fold change vs veh, CACNA2D3 / RFU, DTX4 / Fold change vs veh, DTX4 / RFU, TFCP2 / Fold change vs veh, TFCP2 / RFU, GMCL1 /// GMCL1P1 / Fold change vs veh, GMCL1 /// GMCL1P1 / RFU, AEBP2 / Fold change vs veh, AEBP2 / RFU, SNHG1 /// SNORD22 /// SNORD25 /// SNORD26 /// SNORD27 /// SNORD28 /// SNORD29 /// SNORD31 / Fold change vs veh, SNHG1 /// SNORD22 /// SNORD25 /// SNORD26 /// SNORD27 /// SNORD28 /// SNORD29 /// SNORD31 / Fold change (Aza/veh), C12orf56 (ProbeSet 11735607_a_at) / Fold change (ACY-1035/veh), C12orf56 (ProbeSet 11735607_a_at) / Fold change (Aza/veh), FGFR1OP (ProbeSet 11751329_s_at) / Fold change (ACY-1035/veh), FGFR1OP (ProbeSet 11751329_s_at) / Fold change (Aza/veh), VPS36 (ProbeSet 11739960_a_at) / Fold change (ACY-1035/veh), VPS36 (ProbeSet 11739960_a_at) / RFU SYPL1 (11715823_x_at) / Fold change /veh SYPL1 (11715823_x_at) / RFU IGFBP7 (11715501_s_at) / Fold change /veh IGFBP7 (11715501_s_at) / RFU REEP3 (11722064_at) / Fold change /veh REEP3 (11722064_at) / RFU IGLL1 (11728026_x_at) / Fold change /veh IGLL1 (11728026_x_at): dose or concentration left out as unconfirmed
Conditions: ProbeSet 11731583_a_at; LIST D

Compound: Nc1ccc(-c2cccs2)cc1NC(=O)c1ccc2c(c1)cc(C1CC1)n2CCN1CCOCC1 [ACY-1035]
- RFU, LARP1B: 84.89 RFU
